Where two headings read alike, the source gives them in different places.
Tests used:
Format in all cases: in vivo
T. Urticae = assay: Tetranychus urticae bean leaf disc test, comparison with prior art compounds A and B; details: 12.5 ppm spray on bean leaf discs; mixed ages; 8 days; egg, larval and adult mortality
Source text: 4.4.2 In a further test, the efficacy of one of the compounds giving 100% control in Example 4.4.1 above was compared to the efficacy of imidazoline compounds from the prior art (compounds A and B).
Bean leaf discs on agar in 24-well microtiter plates were sprayed with test solutions at an application rate of 12.5 ppm. After drying, the leaf discs are infested with mite populations of mixed ages. 8 days later, discs are checked for egg mortality, larval mortality, and adult mortality.

Heliothis virescens = Heliothis virescens (tobacco budworm) egg/larvae test on artificial diet; details: for pest or weed control at 200 ppm: Heliothis virescens, 96 h, read-out: control of Heliothis virescens
Description: 4.1 Heliothis Virescens (Tobacco Budworm):
Eggs (0-24 h old) were placed in 24-well microtiter plate on artificial diet and treated with test solutions at an application rate of 200 ppm by pipetting. After an incubation period of 4 days, samples were checked for egg mortality, larval mortality, and growth regulation.

Myzus persicae [1] = assay: Myzus persicae (green peach aphid) sunflower leaf disc spray test; details: for pest or weed control at 200 ppm: Myzus persicae, foliar, 144 h, read-out: control of Myzus persicae
Description: 4.2 Myzus Persicae (Green Peach Aphid):
Sunflower leaf discs were placed on agar in a 24-well microtiter plate and sprayed with test solutions at an application rate of 200 ppm. After drying, the leaf discs were infested with an aphid population of mixed ages. After an incubation period of 6 DAT, samples were checked for mortality.

Myzus persicae [2] = assay: Myzus persicae (green peach aphid) pea seedling root uptake test; details: for pest or weed control at 24 ppm: Myzus persicae, 144 h, read-out: control of Myzus persicae
Source text: 4.3 Myzus Persicae (Green Peach Aphid):
Roots of pea seedlings, infested with an aphid population of mixed ages, were placed directly in the test solutions of 24 ppm. 6 days after introduction, samples were checked for mortality.

Tetranychus urticae = Tetranychus urticae (two-spotted spider mite) bean leaf disc spray test; details: for pest or weed control at 200 ppm: Tetranychus urticae, foliar, 192 h, read-out: control of Tetranychus urticae
Source text: 4.4 Tetranychus Urticae (Two-Spotted Spider Mite):
4.4.1 Bean leaf discs on agar in 24-well microtiter plates were sprayed with test solutions at an application rate of 200 ppm. After drying, the leaf discs are infested with mite populations of mixed ages. 8 days later, discs are checked for egg mortality, larval mortality, and adult mortality.

[3] = 200 ppm by pipetting on eggs (0-24 h old) on artificial diet, 4 days, egg mortality, larval mortality, growth regulation
[4] = 200 ppm spray on sunflower leaf discs, mixed ages, 6 DAT, mortality
[5] = 24 ppm test solution, roots of infested pea seedlings, 6 days, mortality
[6] = 200 ppm spray on bean leaf discs, mixed ages, 8 days, egg, larval and adult mortality

CCC(Oc1cccc(Cl)c1Cl)C1=NCCN1 (stereo not drawn) [A]
Control % (T. Urticae): 0%

CCC(Oc1cccc(C)c1Cl)C1=NCCN1 (stereo not drawn) [B]
Control % (T. Urticae): 50%

CCC(Oc1cccc(C(F)(F)F)c1Cl)C1=NCCN1 (stereo not drawn) [Compound 1.001, 2-[1-(2-Chloro-3-trifluormethyl-phenoxy)-propyl]-4,5-dihydro-1H-imidazole]
pest or weed control at 200 ppm (Heliothis virescens; [3]): 50% | pest or weed control at 200 ppm (Myzus persicae [1]; [4]): 100% | pest or weed control at 24 ppm (Myzus persicae [2]; [5]): 100% | pest or weed control at 200 ppm (Tetranychus urticae; [6]): 100% | Control % (T. Urticae): 80%

CCC(Oc1cccc(C(F)F)c1Cl)C1=NCCN1 (stereo not drawn) [Compound 1.002, 2-[1-(2-Chloro-3-difluoromethyl-phenoxy)-propyl]-4,5-dihydro-1H-imidazole]
pest or weed control at 200 ppm (Heliothis virescens): 0% | pest or weed control at 200 ppm (Myzus persicae [1]): 100% | pest or weed control at 24 ppm (Myzus persicae [2]): 80% | pest or weed control at 200 ppm (Tetranychus urticae): 100%

CCC(Oc1cccc(C(F)F)c1Cl)C1=NCCN1C(=O)OC(C)(C)C (stereo not drawn) [Compound 1.003]
pest or weed control at 200 ppm (Heliothis virescens; [3]): 0% | pest or weed control at 200 ppm (Myzus persicae [1]; [4]): 100% | pest or weed control at 24 ppm (Myzus persicae [2]; [5]): 0% | pest or weed control at 200 ppm (Tetranychus urticae; [6]): 0%

CCC(Oc1cccc(CO)c1Cl)C1=NCCN1 (stereo not drawn) [Compound 1.005]
pest or weed control at 200 ppm (Heliothis virescens; [3]): 0% | pest or weed control at 200 ppm (Myzus persicae [1]; [4]): 0% | pest or weed control at 24 ppm (Myzus persicae [2]; [5]): 0% | pest or weed control at 200 ppm (Tetranychus urticae; [6]): 0%

CCC(Oc1cccc(CF)c1Cl)C1=NCCN1 (stereo not drawn) [Compound 1.006]
pest or weed control at 200 ppm (Heliothis virescens; [3]): 100% | pest or weed control at 200 ppm (Myzus persicae [1]; [4]): 100% | pest or weed control at 24 ppm (Myzus persicae [2]; [5]): 80% | pest or weed control at 200 ppm (Tetranychus urticae; [6]): 100%

CCC(Oc1cccc(CO)c1Cl)C1=NCCN1C(=O)OC(C)(C)C (stereo not drawn) [Compound 1.007]
pest or weed control at 200 ppm (Heliothis virescens; [3]): 0% | pest or weed control at 200 ppm (Myzus persicae [1]; [4]): 0% | pest or weed control at 200 ppm (Tetranychus urticae; [6]): 0%

CCC(Oc1cccc(COC)c1Cl)C1=NCCN1 (stereo not drawn) [Compound 1.008]
control of Heliothis virescens (Heliothis virescens; [3]): 80% | control of Myzus persicae (Myzus persicae [1]; [4]): 0% | control of Tetranychus urticae (Tetranychus urticae; [6]): 0%

C#Cc1cccc(OC(CC)C2=NCCN2)c1Cl (stereo not drawn) [Compound 1.011, 2-[1-(2-Chloro-3-ethynyl-phenoxy)-propyl]-4,5-dihydro-1H-imidazole]
pest or weed control at 200 ppm (Heliothis virescens; [3]): 50% | pest or weed control at 200 ppm (Myzus persicae [1]; [4]): 50% | pest or weed control at 200 ppm (Tetranychus urticae; [6]): 0%

C=Cc1cccc(OC(CC)C2=NCCN2)c1Cl (stereo not drawn) [Compound 1.012]
pest or weed control at 200 ppm (Heliothis virescens; [3]): 0% | pest or weed control at 200 ppm (Myzus persicae [1]; [4]): 0% | pest or weed control at 200 ppm (Tetranychus urticae; [6]): 0%

CC(Oc1cccc(C(F)(F)F)c1Cl)C1=NCCN1 (stereo not drawn) [Compound 1.014]
pest or weed control at 200 ppm (Heliothis virescens; [3]): 80% | pest or weed control at 200 ppm (Myzus persicae [1]; [4]): 100% | pest or weed control at 24 ppm (Myzus persicae [2]; [5]): 50% | pest or weed control at 200 ppm (Tetranychus urticae; [6]): 80%

CCCC(Oc1cccc(C(F)(F)F)c1Cl)C1=NCCN1 (stereo not drawn) [Compound 1.015]
control of Heliothis virescens (Heliothis virescens; [3]): 100% | control of Myzus persicae (Myzus persicae [1]; [4]): 100% | control of Myzus persicae (Myzus persicae [2]; [5]): 50% | control of Tetranychus urticae (Tetranychus urticae; [6]): 100%

CC(C)C(Oc1cccc(C(F)(F)F)c1Cl)C1=NCCN1 (stereo not drawn) [Compound 1.016]
pest or weed control at 200 ppm (Heliothis virescens; [3]): 0% | pest or weed control at 200 ppm (Myzus persicae [1]; [4]): 100% | pest or weed control at 24 ppm (Myzus persicae [2]; [5]): 80% | pest or weed control at 200 ppm (Tetranychus urticae; [6]): 100%

C=Cc1cccc(OC(CC)C2=NCCN2C(=O)OC(C)(C)C)c1Cl (stereo not drawn) [Compound 1.017]
pest or weed control at 200 ppm (Heliothis virescens; [3]): 0% | pest or weed control at 200 ppm (Myzus persicae [1]; [4]): 0% | pest or weed control at 200 ppm (Tetranychus urticae; [6]): 0%

CCC(Oc1cccc(CSC)c1Cl)C1=NCCN1 (stereo not drawn) [Compound 1.019]
control of Heliothis virescens (Heliothis virescens; [3]): 0% | control of Myzus persicae (Myzus persicae [1]; [4]): 0% | control of Tetranychus urticae (Tetranychus urticae; [6]): 0%

CCC(Oc1cccc(C(F)(F)F)c1I)C1=NCCN1.O=C(O)/C=C\C(=O)O (stereo not drawn) [Compound 1.020]
control of Heliothis virescens (Heliothis virescens; [3]): 0% | control of Myzus persicae (Myzus persicae [1]; [4]): 100% | control of Myzus persicae (Myzus persicae [2]; [5]): 80% | control of Tetranychus urticae (Tetranychus urticae; [6]): 100%

CCCC(Oc1cccc(Br)c1Br)C1=NCCN1 (stereo not drawn) [Compound 1.021]
pest or weed control at 200 ppm (Heliothis virescens; [3]): 100% | pest or weed control at 200 ppm (Myzus persicae [1]; [4]): 100% | pest or weed control at 24 ppm (Myzus persicae [2]; [5]): 0% | pest or weed control at 200 ppm (Tetranychus urticae; [6]): 100%

CCCC(Oc1cccc(I)c1Br)C1=NCCN1 (stereo not drawn) [Compound 1.022]
pest or weed control at 200 ppm (Heliothis virescens; [3]): 50% | pest or weed control at 200 ppm (Myzus persicae [1]; [4]): 100% | pest or weed control at 200 ppm (Tetranychus urticae; [6]): 80%

CC(Oc1cccc(C(F)F)c1Cl)C1=NCCN1 (stereo not drawn) [Compound 1.023]
pest or weed control at 200 ppm (Heliothis virescens; [3]): 80% | pest or weed control at 200 ppm (Myzus persicae [1]; [4]): 100% | pest or weed control at 24 ppm (Myzus persicae [2]; [5]): 0% | pest or weed control at 200 ppm (Tetranychus urticae; [6]): 0%

CCC(Oc1cccc(C#N)c1Cl)C1=NCCN1 (stereo not drawn) [Compound 1.024]
pest or weed control at 200 ppm (Heliothis virescens; [3]): 0% | pest or weed control at 200 ppm (Myzus persicae [1]; [4]): 80% | pest or weed control at 24 ppm (Myzus persicae [2]; [5]): 50% | pest or weed control at 200 ppm (Tetranychus urticae; [6]): 100%

CCC(Oc1cccc(C#N)c1Cl)C1=NCCN1C(=O)OC(C)(C)C (stereo not drawn) [Compound 1.025]
pest or weed control at 200 ppm (Heliothis virescens; [3]): 0% | pest or weed control at 200 ppm (Myzus persicae [1]; [4]): 0% | pest or weed control at 200 ppm (Tetranychus urticae; [6]): 50%

CCCCC(Oc1cccc(C(F)(F)F)c1Cl)C1=NCCN1 (stereo not drawn) [Compound 1.027]
pest or weed control at 200 ppm (Heliothis virescens; [3]): 50% | pest or weed control at 200 ppm (Myzus persicae [1]; [4]): 80% | pest or weed control at 24 ppm (Myzus persicae [2]; [5]): 0% | pest or weed control at 200 ppm (Tetranychus urticae; [6]): 100%

CCCC(Oc1cccc(C(F)F)c1Cl)C1=NCCN1 (stereo not drawn) [Compound 1.028]
pest or weed control at 200 ppm (Heliothis virescens; [3]): 80% | pest or weed control at 200 ppm (Myzus persicae [1]; [4]): 100% | pest or weed control at 24 ppm (Myzus persicae [2]; [5]): 100% | pest or weed control at 200 ppm (Tetranychus urticae; [6]): 100%

CCCCC(Oc1cccc(C(F)F)c1Cl)C1=NCCN1 (stereo not drawn) [Compound 1.029]
pest or weed control at 200 ppm (Heliothis virescens; [3]): 80%

CC(C)C(Oc1cccc(C(F)F)c1Cl)C1=NCCN1 (stereo not drawn) [Compound 1.030]
pest or weed control at 200 ppm (Heliothis virescens; [3]): 0% | pest or weed control at 200 ppm (Myzus persicae [1]; [4]): 100% | pest or weed control at 24 ppm (Myzus persicae [2]; [5]): 80% | pest or weed control at 200 ppm (Tetranychus urticae; [6]): 100%

CCCC(Oc1cccc(CF)c1Cl)C1=NCCN1 (stereo not drawn) [Compound 1.031]
pest or weed control at 200 ppm (Heliothis virescens; [3]): 0% | pest or weed control at 200 ppm (Myzus persicae [1]; [4]): 100% | pest or weed control at 24 ppm (Myzus persicae [2]; [5]): 80% | pest or weed control at 200 ppm (Tetranychus urticae; [6]): 100%

CCCCC(Oc1cccc(CF)c1Cl)C1=NCCN1 (stereo not drawn) [Compound 1.032]
pest or weed control at 200 ppm (Heliothis virescens; [3]): 0% | pest or weed control at 200 ppm (Myzus persicae [1]; [4]): 100% | pest or weed control at 24 ppm (Myzus persicae [2]; [5]): 50% | pest or weed control at 200 ppm (Tetranychus urticae; [6]): 0%

CCCC(Oc1cccc(I)c1Cl)C1=NCCN1 (stereo not drawn) [Compound 1.033]
pest or weed control at 200 ppm (Heliothis virescens; [3]): 80% | pest or weed control at 200 ppm (Myzus persicae [1]; [4]): 100% | pest or weed control at 24 ppm (Myzus persicae [2]; [5]): 0% | pest or weed control at 200 ppm (Tetranychus urticae; [6]): 80%

CCC(Oc1cccc(CCl)c1Cl)C1=NCCN1C(=O)OC(C)(C)C (stereo not drawn) [Compound 1.034]
control of Heliothis virescens (Heliothis virescens; [3]): 100% | control of Myzus persicae (Myzus persicae [1]; [4]): 0% | control of Tetranychus urticae (Tetranychus urticae; [6]): 0%

CCC(Oc1cccc(C[S+](C)[O-])c1Cl)C1=NCCN1 (stereo not drawn) [Compound 1.035]
control of Heliothis virescens (Heliothis virescens; [3]): 0% | control of Myzus persicae (Myzus persicae [1]; [4]): 0% | control of Tetranychus urticae (Tetranychus urticae; [6]): 0%

CCCC(Oc1cccc(Br)c1Cl)C1=NCCN1 (stereo not drawn) [Compound 1.036]
pest or weed control at 200 ppm (Heliothis virescens; [3]): 100% | pest or weed control at 200 ppm (Myzus persicae [1]; [4]): 100% | pest or weed control at 24 ppm (Myzus persicae [2]; [5]): 0% | pest or weed control at 200 ppm (Tetranychus urticae; [6]): 100%

CC(C)C(Oc1cccc(CF)c1Cl)C1=NCCN1 (stereo not drawn) [Compound 1.037]
pest or weed control at 200 ppm (Heliothis virescens; [3]): 80% | pest or weed control at 200 ppm (Myzus persicae [1]; [4]): 100% | pest or weed control at 24 ppm (Myzus persicae [2]; [5]): 50% | pest or weed control at 200 ppm (Tetranychus urticae; [6]): 100%

— patent US8455663B2, “Halosubstituted aryloxyalkylimidazolines for use as pesticides” (Syngenta Crop Protection LLC, priority 2007, dated 2013)
